{
  "source": "patent US8652467B2",
  "about": "“Dek protein compositions and methods of using the same” (The Regents of the University of Michigan, priority 2005, dated 2014)",
  "molecules": {"B1": {"name": "IFN-γ: inflammatory mediator (protein, UniProt P01579 24-161, looked up)", "Interferon gamma": "QDPYVKEAENLKKYFNAGHSDVADNGTLFLGILKNWKEESDRKIMQSQIVSFYFKLFKNFKDDQSIQKSVETIKEDMNVKFFNSNKKKRDDFEKLTNYSVTDLNVQRKAIHELIQVMAELSPAAKTGKRKRSQMLFRG"}},
  "key": {"[1]": {"system": "monocyte-derived macrophages (MDM)", "assay": "DEK secretion by serum-differentiated MDM, Western blot of supernatants", "format": "cell-based, human", "conditions": "for amount of DEK found in culture supernatants: treatment of MDM with Golgi inhibitors", "experimental": "MDM were prepared as described (See, e.g., Lane et al., J Immunol 163, 3653-61. (1999)). Briefly, heparinized venous blood was collected from healthy volunteers, and peripheral blood mononuclear cells (PBMC) were separated by Ficoll-Hypaque (Amersham Pharmacia Biotech AB, Uppsala, Sweden) density gradient centrifugation. MDM were purified by adherence to plastic for 2 h at 37° C. at a concentration of 5×10^5/ml. Adherent cells were consistently >90% monocytes (See, e.g., Lane et al., J Immunol 163, 3653-61. (1999)). […]\nMDMs were maintained for 12 h in serum-free conditioned media with added dexamethasone, (0.5 μM or 1 μM) (Sigma St. Louis, Mo.), cyclosporin A (CsA, 1 μg/ml) (Sigma St. Louis, Mo.), carbonyl cyanide chlorophenyl hydrazone (CCCP) (10 μM) (Sigma St. Louis, Mo.), IL-8 (10 ng/ml) (R&D Systems, Minneapolis, Minn.) or TBB (See, e.g., Sarno et al., Pharmacol Ther 93, 159-68 (2002)) for 3 hours. Following 3 washes with PBS, serum-free media was added for 3 to 12 h before harvest. The viability of the cells incubated in serum-free medium with or without added drugs was >95% at 48 h as measured by MTT-based colorimetric assay (Boehringer Mannheim, Indianapolis, Ind.) and by LDH release as previously described (See, e.g., Punturieri et al., J Exp Med 192, 789-99. (2000)). Supernatants were collected and centrifuged for 20 min at 200×g to remove cell debris, then concentrated by a centrifugal filter device (Millipore) in the presence of a protease inhibitor cocktail (Boehringer Mannheim, Indianapolis, Ind.). Equal amounts of protein (20 μg) were loaded under reducing conditions and proteins were separated by 10% SDS-PAGE. The proteins were subsequently transferred to nitrocellulose and probed with mouse monoclonal anti-DEK or rabbit or goat polyclonal anti-DEK antibodies. The bound primary antibody was then detected with horseradish peroxidase-conjugated goat anti-mouse or anti-rabbit secondary antibody using the Super Signal West Pico system (Pierce Chemical Co, Rockford, Ill.)."}, "CXCR2": {"biological_target": "T1, CXCR2 (Homo sapiens, UniProt P25025)", "T1 sequence (P25025 1-360)": "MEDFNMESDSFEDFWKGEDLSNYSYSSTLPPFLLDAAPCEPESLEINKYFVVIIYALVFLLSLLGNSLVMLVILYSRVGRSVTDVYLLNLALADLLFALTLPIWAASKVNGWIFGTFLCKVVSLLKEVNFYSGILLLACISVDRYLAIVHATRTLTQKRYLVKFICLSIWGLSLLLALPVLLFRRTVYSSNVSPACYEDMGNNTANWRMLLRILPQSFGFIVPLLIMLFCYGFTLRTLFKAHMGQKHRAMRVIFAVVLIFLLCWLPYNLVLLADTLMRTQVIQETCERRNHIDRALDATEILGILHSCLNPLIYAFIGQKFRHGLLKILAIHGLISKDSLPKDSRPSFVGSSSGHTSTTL", "conditions": "at low concentrations; cited from earlier work"}, "[2]": {"system": "purified neutrophils (PMN)", "assay": "In vitro migration assay with purified neutrophils", "format": "cell-based, human", "conditions": "SB225002 3 μM, 1 h", "experimental": "Purified neutrophils (PMN) were treated with IL-8 (50 nM), the CXCR2 small molecule inhibitor SB225002 (3 μM), DEK (79 nM), IL-8 plus SB225002, or DEK plus SB225002 for 5 min at room temperature before and then during the migration assay. After 1 h, the number of fluorescently labeled migrating cells in the lower chamber was determined at 485 nM/535 nm wavelengths by Tecan GENios (Phenix, Austria). […] The results are expressed as the average fold increase in the number of cells migrating toward DEK compared to control wells containing medium only. White blood cells were isolated from venous blood from healthy donors as described above, and were depleted of monocytes by adherence to plastic for 2 h as described in the Cell Preparation section. […] The cells were washed and resuspended at 1×10^6 cells/ml in serum-free RPMI medium, and 1×10^5 labeled cells in 100 μl were added to the upper chamber of a 24-well Transwell chemotaxis insert with pore size of 3 μm or 5 μm (Corning, N.Y.). The lower chambers contained serum-free RPMI medium alone, recombinant DEK made in baculovirus, or a deletion mutant of the β form of human GLI-2 (See, e.g., Smith et al., J Virol 75, 2301-13 (2001)) produced in baculovirus as the control protein. After 30 min to 1 h, the number of fluorescently labeled migrating cells in the lower chamber was determined at […] wavelength using a Tecan GENios plate-reader (Phenix, Austria). The results were expressed as the average fold increase of the number of cells migrating toward lower chambers containing DEK divided by the number of cells migrating toward the control wells (medium alone). Forty ml of venous blood was collected from healthy volunteers into a 50 ml sterile syringe containing a mixture of 7 ml 0.25 M Citrate (0.17 M NA Citrate and 0.083 M Citric Acid) and 6% Dextran in PBS buffer. The blood was incubated for 30 min at room temperature and the upper phase was collected and further separated by Ficoll as described above. The neutrophil fraction was collected and washed with HBSS buffer and then pelleted again. […]"}, "Jurkat cells": {"system": "Jurkat cells", "assay": "FAS-L induced apoptosis assay, DEK release into cytoplasm", "format": "cell-based", "conditions": "Fas Ligand-mediated apoptosis, 3% FAS-L, 180 min", "experimental": "Jurkat cells were washed with serum-free RPMI medium and incubated with 3% FAS-L without or with the broad-spectrum caspase inhibitor zVAD for 180 min. Cells were fractionated and the cytoplasm was separated by SDS-PAGE followed by immunoblotting with DEK specific antibodies (mouse monoclonal, BD Bioscience). As a loading control the same blot was reprobed with specific antibodies to beta-actin."}, "[3]": {"system": "Jurkat control and DEK-knockdown cells", "assay": "DEK knock-down and DNA damage assay (Annexin-V)", "format": "cell-based", "conditions": "increasing doses, 24 hours", "experimental": "Jurkat and HeLa S3 cells were transduced with either an empty lentiviral vector, or a vector containing two DEK-specific shRNAs. Control and DEK-knockdown Jurkat cells were exposed to increasing doses of UVC radiation. Twenty-four hours after irradiation, the percentage of apoptotic cells was determined by staining with Annexin-V and analysis by flow cytometry. HeLa S3 control and DEK-knockdown cells were similarly treated with increasing doses of UVC radiation. Cells were fixed, permeabilized, and stained with R-phycoerythrin labeled antibodies against the active form of caspase-3 twenty-four hours after irradiation. The percentage of cells expressing the active form of caspase-3 was determined by flow cytometry. Jurkat control and DEK-knockdown transduced cells were treated with either etoposide or cisplatin at increasing doses and 24 hours later the percentage of apoptotic cells was determined by staining with Annexin-V."}, "[4]": {"conditions": "MDM in 10% human serum, TNF-α 5-100 ng/ml, IFN-γ 10-100 ng/ml, MCP-1 10-100 ng/ml, LPS 500-1000 ng/ml alone and with IFN-γ"}},
  "note": "Entries after “also recorded” stand apart in the source; their conditions may differ. Peptide text beside a SMILES is read from it. * marks the point of attachment. Cbz = O=C(OCc1ccccc1)*; CH2F = FC*",
  "data": [
    {"molecule": "C[C@H]1CCC/C=C/[C@@H]2C[C@H](O)C[C@H]2[C@H](O)/C=C/C(=O)O1", "note": "[Brefeldin A]", "values": [
      {"measurement": "amount of DEK found in culture supernatants", "setting": "[1]", "result": "does not alter"}
    ]},
    {"molecule": "O=C(Nc1ccc([N+](=O)[O-])cc1O)Nc1ccccc1Br", "note": "[SB225002]", "values": [
      {"measurement": "receptor selectivity", "setting": "CXCR2", "result": "selective for CXCR2"},
      {"measurement": "neutrophil migration toward DEK", "setting": "[2]; DEK 79 nM", "result": "significantly blocked; also recorded: virtually complete inhibition"},
      {"measurement": "neutrophil migration toward IL-8", "setting": "[2]; IL-8 50 nM", "result": "significantly blocked; also recorded: virtually complete inhibition"}
    ]},
    {"molecule": "Brc1c(Br)c(Br)c2[nH]nnc2c1Br", "note": "[TBB, 4,5,6,7-tetrabromobenzotriazole]", "values": [
      {"measurement": "inhibition of DEK secretion", "setting": "[1]; 12-day MDM treated with TBB", "result": "complete inhibition"},
      {"measurement": "amount of extracellular DEK from TBB-treated cells vs untreated cells", "setting": "[1]; 12 hours after removal of TBB", "result": "significantly lower"},
      {"measurement": "DEK in supernatants collected during the first 3 hours of incubation in serum free media", "setting": "[1]; three-hour treatment of 8-day MDM with TBB (50 μM)", "result": "absent"}
    ]},
    {"molecule": "CC(NC(=O)C(NC(=O)OCc1ccccc1)C(C)C)C(=O)NC(CC(=O)O)C(=O)CF", "note": "(stereo not drawn) [ZVAD] (Cbz-Val-Ala-Asp-CH2F; configuration not given here)", "values": [
      {"measurement": "release of DEK into the cytoplasm", "setting": "Jurkat cells", "result": "blocks"}
    ]},
    {"molecule": "N.N.[Cl][Pt][Cl]", "note": "[cisplatinum]", "values": [
      {"measurement": "sensitivity of DEK knock-down cells vs control cells (apoptosis)", "setting": "[3]", "result": "consistently more sensitive"}
    ]},
    {"molecule": "COc1cc([C@@H]2c3cc4c(cc3[C@@H](O[C@@H]3O[C@@H]5CO[C@@H](C)O[C@H]5[C@H](O)[C@H]3O)[C@H]3COC(=O)[C@H]23)OCO4)cc(OC)c1O", "note": "[etoposide]", "values": [
      {"measurement": "sensitivity of DEK knock-down cells vs control cells (apoptosis)", "setting": "[3]", "result": "consistently more sensitive"}
    ]},
    {"molecule": "CC[C@@]1([C@@H]2O[C@@H]([C@H]3O[C@@](O)(CO)[C@H](C)C[C@@H]3C)C[C@@H]2C)CC[C@H]([C@]2(C)CC[C@]3(C[C@H](O)[C@@H](C)[C@@H]([C@@H](C)[C@@H](OC)[C@H](C)C(=O)O)O3)O2)O1", "note": "[monensin]", "values": [
      {"measurement": "amount of DEK found in culture supernatants", "setting": "[1]", "result": "does not alter"}
    ]},
    {"molecule": "IL-8: recombinant IL-8, chemokine, neutrophil chemoattractant", "values": [
      {"measurement": "stimulation of DEK secretion", "setting": "[1]; IL-8 10 ng/ml, 12 h, day 12 MDM grown in 10% human serum", "result": "induces the secretion of DEK; also recorded: effective in stimulating vigorous secretion of DEK"}
    ]},
    {"molecule": "MCP-1: monocyte chemoattractant protein-1", "values": [
      {"measurement": "stimulation of DEK secretion", "setting": "[1]; [4]", "result": "None of the inflammatory mediators listed above reproducibly stimulated DEK secretion"}
    ]},
    {"molecule": "TNF-α", "values": [
      {"measurement": "stimulation of DEK secretion", "setting": "[1]; [4]", "result": "None of the inflammatory mediators listed above reproducibly stimulated DEK secretion"}
    ]},
    {"molecule": "lipopolysaccharide [LPS]", "values": [
      {"measurement": "stimulation of DEK secretion", "setting": "[1]; [4]", "result": "None of the inflammatory mediators listed above reproducibly stimulated DEK secretion"}
    ]},
    {"molecule": "tunicamycin", "values": [
      {"measurement": "DEK secretion", "setting": "[1]; treatment of MDM with tunicamycin (inhibits N-glycosylation)", "result": "not inhibited"}
    ]},
    {"molecule": "B1", "values": [
      {"measurement": "stimulation of DEK secretion", "setting": "[1]; [4]", "result": "None of the inflammatory mediators listed above reproducibly stimulated DEK secretion"}
    ]}
  ]
}
